Tests used:
Assay type in all cases: cell-based
[1] = tested on: MCF-7 breast cancer cells; assay: MTT cell viability analysis (cytotoxicity); settings: Homo sapiens, MCF7, MCF-7 cells, 24 hours treatment
Description: MTT (3-(4,5-dimethylthiazol-2-yl)-2,5-diphenyltetrazolium bromide) assay was used for cell viability analysis. MCF-7 breast cancer cells were seeded in a cell culture plate (96-well) at 10^4 cells per well in 200 μl of Dulbecco's modified Eagle medium (DMEM). […] MTT solution (20 μl of 5 mg/mL) was added to each well of the micro plate, which were then incubated in a CO2 incubator at 37° C. for 3 hours. After incubation, the culture medium was removed and 100 μL of isopropanol were added to each well of the micro plate and the absorbance was recorded at 570 nm against reagent blank. The cell viability was calculated using the formula:
Cell viability %=100*(Absorbance sample)/(Absorbance blank)

MCF-7 cells [2] = assay: Mitochondrial membrane potential analysis (Muse MitoPotential flow cytometry); settings: 24 hours
Description: Muse MitoPotential Flow Cytometry Kit (Luminex, IL, USA) was used for measuring mitochondrial membrane potential (MMP). MCF-7 cells were seeded (15000 cells per well) in a 6-wells culture plate. […] A negative control (DMSO) was run in parallel. Finally, the cells were stained with Mito Potential reagents provided in the kit, following the manufacturer's instructions, and then analyzed by flow cytometry.

MCF-7 cells [3] = assay: Reactive oxygen species analysis (Muse Oxidative Stress Kit, flow cytometry); settings: 24 h
Description: For the analysis of reactive oxygen species (ROS), MCF-7 cells were seeded ([…]) in a 6-well plate and allowed to grow for 24 h at 37° C. under the environment of 5% CO2 and 95% humidity. […] DMS( )served as a negative control. The final DMSO concentration in each well was less than 0.1%. After harvesting the cells, they were stained with Muse® Oxidative Stress Kit (Luminex, IL, USA) following the manufacturer's instructions. The percentage of cells with oxidative stress was measured by flow cytometry analysis.

MCF-7 cells [4] = assay: Intracellular ATP analysis (colorimetric ATP assay kit); settings: 0-100 μM, 12 h
Description: The intracellular ATP levels were determined after the exposure of PBTDG and erlotinib (0-100 μM) to MCF-7 cells for 12 h using a colorimetric ATP assay kit (Sigma-Aldrich, USA) according to the manufacturer instructions. The unknown concentrations of the test samples were calculated using the linear standard curve generated from the concentration of 0-12 nmole ATP. […]

Question: Which IC50 [1] does the source give for `CNC(=O)c1cc(Oc2ccc(NC(=O)Nc3ccc(Cl)c(C(F)(F)F)c3)cc2)ccn1` [sorafenib] here?
Answer: 4.45 µM

Question: And the Mitochondrial membrane depolarization (MCF-7 cells [2]; 1.0 μM)?
Answer: 2.7%

Question: And the Mitochondrial membrane depolarization (MCF-7 cells [2]; 5.0 μM)?
Answer: 12.0%

Question: And the ROS generation (MCF-7 cells [3]; 1 μM)?
Answer: 73.76%

Question: What about the ROS generation (MCF-7 cells [3]; 5 μM) of the same compound?
Answer: 122.11%

Question: For `C#Cc1cccc(Nc2ncnc3cc(OCCOC)c(OCCOC)cc23)c1` [erlotinib], which “Effect on intracellular ATP levels” value (MCF-7 cells [4]) is on record?
Answer: depleted

— patent US20240059719A1, “GOLD COMPLEXES AS ANTICANCER AGENT” (King Saud University, priority 2023, published 2024)
